Reference: ChEMBL document CHEMBL5338715, “Identification of (S)-1-(2-(2,4-difluorophenyl)-4-oxothiazolidin-3-yl)-3-(4-((7-(3-(4-ethylpiperazin-1-yl)propoxy)-6-methoxyquinolin-4-yl)oxy)-3,5-difluorophenyl)urea as a potential anti-colorectal cancer agent” (Eur J Med Chem, 2022)

Experiments:
[1] = system: BaF3; experiment: cells; details: Mus musculus, BaF3, 72 h
[2] = system: BaF3; experiment: cells; details: Mus musculus, BaF3, 72 h; remark: listed apart in the source
[3] = system: HT-29; experiment: cells; details: Homo sapiens
[4] = system: HCT-116; experiment: cells; details: Homo sapiens
[5] = Metabolic stability in human liver microsomes assessed as half life at 1 uM measured upto 45 mins in presence of NADPH by LC-MS/MS analysis; assay type: ADME, Microsome
[6] = Metabolic stability in human liver microsomes assessed as intrinsic clearance at 1 uM measured upto 45 mins in presence of NADPH by LC-MS/MS analysis; assay type: ADME, Microsome; details: read-out: CLH
[7] = Metabolic stability in human liver microsomes assessed as parent compound remaining at 1 uM measured after 45 mins in presence of NADPH by LC-MS/MS analysis; assay type: ADME, Microsome; details: read-out: Stability
[8] = Cytotoxicity against human FHC cells assessed as cell growth inhibition by MTT assay; assay type: toxicity, cell-based
[9] = target: T1, Tyrosine-protein kinase ABL1 (Homo sapiens, UniProt P00519); experiment: Inhibition of ABL (unknown origin) assessed as residual activity at 1 uM by kinome scan assay relative to control
[10] = target: T2, Proto-oncogene tyrosine-protein kinase receptor Ret (Homo sapiens, UniProt P07949); experiment: Inhibition of RET (unknown origin) assessed as residual activity at 1 uM by kinome scan assay relative to control
[11] = target: Platelet-derived growth factor receptor beta (Homo sapiens) (UniProt P09619); experiment: Inhibition of PDGFRbeta (unknown origin) assessed as residual activity at 1 uM by kinome scan assay relative to control
[12] = target: T1, Tyrosine-protein kinase ABL1; experiment: Inhibition of ABL (unknown origin) by kinome scan assay
[13] = target: T2, Proto-oncogene tyrosine-protein kinase receptor Ret; experiment: Inhibition of RET (unknown origin) by kinome scan assay
[14] = system: EBC-1; experiment: cells; details: Homo sapiens
[15] = system: NCI-H1993; experiment: cells; details: Homo sapiens
[16] = system: COLO 205; experiment: cells; details: Homo sapiens
[17] = system: LoVo; experiment: cells; details: Homo sapiens
[18] = cells; details: Homo sapiens, TT
[19] = system: SNU-5; experiment: cells; details: Homo sapiens
[20] = system: MKN-45; experiment: cells; details: Homo sapiens
[21] = target: Hepatocyte growth factor receptor (Homo sapiens, UniProt P08581); experiment: Inhibition of c-Met (unknown origin)
Hepatocyte growth factor receptor, sequence (P08581 whole entry): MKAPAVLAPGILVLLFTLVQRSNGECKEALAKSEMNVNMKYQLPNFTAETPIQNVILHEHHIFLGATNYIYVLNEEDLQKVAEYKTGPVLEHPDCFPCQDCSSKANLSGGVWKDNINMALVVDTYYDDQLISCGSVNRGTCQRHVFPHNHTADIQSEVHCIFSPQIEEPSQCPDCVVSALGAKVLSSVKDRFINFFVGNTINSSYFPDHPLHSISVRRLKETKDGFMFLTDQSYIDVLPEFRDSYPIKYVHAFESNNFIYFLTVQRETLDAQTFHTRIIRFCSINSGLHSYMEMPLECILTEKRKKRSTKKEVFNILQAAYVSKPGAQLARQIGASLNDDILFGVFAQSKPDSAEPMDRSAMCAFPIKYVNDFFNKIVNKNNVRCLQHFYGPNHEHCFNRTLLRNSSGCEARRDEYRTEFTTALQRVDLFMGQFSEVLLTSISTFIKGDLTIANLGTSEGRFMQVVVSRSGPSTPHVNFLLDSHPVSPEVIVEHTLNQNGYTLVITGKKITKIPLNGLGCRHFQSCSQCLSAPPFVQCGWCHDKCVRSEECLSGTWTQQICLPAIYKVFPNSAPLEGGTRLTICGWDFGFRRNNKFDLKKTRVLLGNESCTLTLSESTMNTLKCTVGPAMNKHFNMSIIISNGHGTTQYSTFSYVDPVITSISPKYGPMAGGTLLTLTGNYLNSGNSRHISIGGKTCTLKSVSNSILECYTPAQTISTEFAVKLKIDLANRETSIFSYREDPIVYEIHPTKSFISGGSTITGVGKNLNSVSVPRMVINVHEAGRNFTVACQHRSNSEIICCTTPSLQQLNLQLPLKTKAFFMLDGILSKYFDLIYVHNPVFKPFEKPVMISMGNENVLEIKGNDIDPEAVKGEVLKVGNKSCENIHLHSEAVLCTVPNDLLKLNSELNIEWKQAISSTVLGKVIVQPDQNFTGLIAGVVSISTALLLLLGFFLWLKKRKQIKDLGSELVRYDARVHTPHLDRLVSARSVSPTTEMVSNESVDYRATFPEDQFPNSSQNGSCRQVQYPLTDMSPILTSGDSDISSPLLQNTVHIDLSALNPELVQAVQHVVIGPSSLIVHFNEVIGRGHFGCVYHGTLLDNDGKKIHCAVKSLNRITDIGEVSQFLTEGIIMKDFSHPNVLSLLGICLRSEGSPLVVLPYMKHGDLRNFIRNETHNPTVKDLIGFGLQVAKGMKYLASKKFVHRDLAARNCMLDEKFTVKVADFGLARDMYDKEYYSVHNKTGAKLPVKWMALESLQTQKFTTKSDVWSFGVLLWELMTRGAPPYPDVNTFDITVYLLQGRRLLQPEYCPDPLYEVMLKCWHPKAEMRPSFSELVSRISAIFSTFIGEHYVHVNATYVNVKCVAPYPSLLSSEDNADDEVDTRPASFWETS

T2 sequence (P07949 whole entry): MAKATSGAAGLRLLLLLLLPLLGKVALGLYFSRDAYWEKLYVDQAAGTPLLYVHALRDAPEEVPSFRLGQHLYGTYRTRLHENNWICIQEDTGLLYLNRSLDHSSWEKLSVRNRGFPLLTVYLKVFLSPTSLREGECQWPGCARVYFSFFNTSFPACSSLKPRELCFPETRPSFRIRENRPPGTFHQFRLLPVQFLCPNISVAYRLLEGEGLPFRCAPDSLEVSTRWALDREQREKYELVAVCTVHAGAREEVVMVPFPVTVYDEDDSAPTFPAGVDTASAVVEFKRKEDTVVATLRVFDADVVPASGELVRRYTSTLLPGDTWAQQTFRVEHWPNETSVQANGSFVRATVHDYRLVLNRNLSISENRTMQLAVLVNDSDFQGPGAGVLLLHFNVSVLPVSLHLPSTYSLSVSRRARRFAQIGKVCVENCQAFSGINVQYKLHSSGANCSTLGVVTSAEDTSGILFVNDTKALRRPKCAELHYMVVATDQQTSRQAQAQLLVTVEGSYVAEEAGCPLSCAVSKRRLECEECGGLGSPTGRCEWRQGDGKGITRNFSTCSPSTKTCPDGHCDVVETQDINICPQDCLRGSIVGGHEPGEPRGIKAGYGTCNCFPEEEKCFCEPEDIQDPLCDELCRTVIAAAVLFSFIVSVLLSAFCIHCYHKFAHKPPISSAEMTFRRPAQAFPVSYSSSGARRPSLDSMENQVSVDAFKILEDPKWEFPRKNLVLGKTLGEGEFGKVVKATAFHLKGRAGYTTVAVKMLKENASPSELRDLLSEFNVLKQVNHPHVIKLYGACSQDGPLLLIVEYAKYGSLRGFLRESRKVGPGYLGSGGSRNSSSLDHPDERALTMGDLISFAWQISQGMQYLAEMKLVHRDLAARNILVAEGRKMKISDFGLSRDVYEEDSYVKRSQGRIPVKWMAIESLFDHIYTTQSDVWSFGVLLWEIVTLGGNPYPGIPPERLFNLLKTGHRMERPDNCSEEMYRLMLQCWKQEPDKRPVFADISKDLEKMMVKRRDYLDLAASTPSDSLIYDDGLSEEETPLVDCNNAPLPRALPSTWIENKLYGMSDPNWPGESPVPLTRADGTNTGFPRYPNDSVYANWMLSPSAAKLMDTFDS
T1 sequence (P00519 whole entry): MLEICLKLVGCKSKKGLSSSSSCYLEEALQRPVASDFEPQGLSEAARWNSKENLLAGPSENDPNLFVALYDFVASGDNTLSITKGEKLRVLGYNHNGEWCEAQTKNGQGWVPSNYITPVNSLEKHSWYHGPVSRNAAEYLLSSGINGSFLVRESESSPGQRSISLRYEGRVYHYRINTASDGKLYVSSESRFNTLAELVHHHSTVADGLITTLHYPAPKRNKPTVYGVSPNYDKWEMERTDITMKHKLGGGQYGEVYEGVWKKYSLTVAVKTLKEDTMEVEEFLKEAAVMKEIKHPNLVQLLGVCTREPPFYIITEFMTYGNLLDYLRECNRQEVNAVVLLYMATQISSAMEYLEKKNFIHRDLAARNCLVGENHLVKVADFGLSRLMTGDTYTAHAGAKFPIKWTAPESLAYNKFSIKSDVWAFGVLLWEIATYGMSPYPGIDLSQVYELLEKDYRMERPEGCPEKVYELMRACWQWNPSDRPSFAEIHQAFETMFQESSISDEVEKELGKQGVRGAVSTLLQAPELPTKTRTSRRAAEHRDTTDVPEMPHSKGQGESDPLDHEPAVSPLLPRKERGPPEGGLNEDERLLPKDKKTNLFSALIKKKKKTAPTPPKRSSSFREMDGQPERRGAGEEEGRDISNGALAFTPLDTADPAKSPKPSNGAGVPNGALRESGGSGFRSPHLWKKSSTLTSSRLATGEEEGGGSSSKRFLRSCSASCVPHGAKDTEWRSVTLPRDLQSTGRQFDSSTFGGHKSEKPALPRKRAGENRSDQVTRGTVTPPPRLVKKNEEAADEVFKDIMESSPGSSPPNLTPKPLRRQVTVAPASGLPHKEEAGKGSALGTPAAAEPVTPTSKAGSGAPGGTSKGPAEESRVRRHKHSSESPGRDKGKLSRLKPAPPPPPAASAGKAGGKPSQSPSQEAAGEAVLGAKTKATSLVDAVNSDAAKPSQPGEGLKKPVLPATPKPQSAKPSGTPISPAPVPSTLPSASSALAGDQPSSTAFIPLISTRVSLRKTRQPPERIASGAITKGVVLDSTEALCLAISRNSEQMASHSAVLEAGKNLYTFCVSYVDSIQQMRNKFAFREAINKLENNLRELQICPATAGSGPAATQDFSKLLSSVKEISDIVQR
Platelet-derived growth factor receptor beta (Homo sapiens), sequence (P09619 whole entry): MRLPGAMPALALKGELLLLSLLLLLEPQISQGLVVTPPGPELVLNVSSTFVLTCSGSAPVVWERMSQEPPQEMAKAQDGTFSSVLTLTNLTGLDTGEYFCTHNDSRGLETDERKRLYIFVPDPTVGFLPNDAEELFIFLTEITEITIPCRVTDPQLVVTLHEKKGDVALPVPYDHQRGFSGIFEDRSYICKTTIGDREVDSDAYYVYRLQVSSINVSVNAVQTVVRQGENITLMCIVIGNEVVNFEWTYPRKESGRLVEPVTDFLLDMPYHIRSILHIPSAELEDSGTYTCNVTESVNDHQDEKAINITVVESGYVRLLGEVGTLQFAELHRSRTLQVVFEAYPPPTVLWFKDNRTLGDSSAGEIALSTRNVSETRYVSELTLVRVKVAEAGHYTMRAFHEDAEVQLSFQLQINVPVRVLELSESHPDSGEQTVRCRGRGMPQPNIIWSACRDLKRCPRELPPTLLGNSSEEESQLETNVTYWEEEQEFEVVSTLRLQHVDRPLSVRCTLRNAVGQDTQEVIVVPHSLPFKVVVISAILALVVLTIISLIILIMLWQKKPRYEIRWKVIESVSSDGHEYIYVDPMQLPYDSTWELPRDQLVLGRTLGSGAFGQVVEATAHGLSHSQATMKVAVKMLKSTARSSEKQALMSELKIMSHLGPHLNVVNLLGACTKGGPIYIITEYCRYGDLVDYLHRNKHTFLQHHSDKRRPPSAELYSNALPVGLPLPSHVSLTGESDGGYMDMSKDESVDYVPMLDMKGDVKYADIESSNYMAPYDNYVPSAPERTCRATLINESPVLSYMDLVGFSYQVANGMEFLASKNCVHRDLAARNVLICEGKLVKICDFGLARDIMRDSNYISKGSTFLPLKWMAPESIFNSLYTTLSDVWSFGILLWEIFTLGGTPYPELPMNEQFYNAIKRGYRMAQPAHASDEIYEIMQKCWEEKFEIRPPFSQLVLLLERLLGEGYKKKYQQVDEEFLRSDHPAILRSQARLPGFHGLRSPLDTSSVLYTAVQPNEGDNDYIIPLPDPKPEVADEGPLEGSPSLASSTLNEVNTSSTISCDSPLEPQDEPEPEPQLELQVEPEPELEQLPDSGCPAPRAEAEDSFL

CCN(CC)CCCOc1cc2nccc(Oc3ccc(C(=O)NN4C(=O)CSC4c4c(F)cccc4F)cc3)c2cc1OC (stereo not drawn)
IC50 [1]: 330 nM | IC50 [2]: 930 nM | IC50 [3]: 680 nM | IC50 [4]: 3200 nM

C[C@]12CC[C@H]3[C@@H](CCC4=CC(=O)CC[C@@]43C)[C@@H]1CC[C@@H]2O [TESTOSTERONE]
half-life at 1 µM [5]: 0.177 h | CLint scaled at 1 µM [6]: 164 mL/min/kg | remaining at 0.75 h, 1 µM [7]: 8.1%

CCN1CCN(CCCOc2cc3nccc(Oc4c(F)cc(NC(=O)NN5C(=O)CSC5c5ccc(F)cc5F)cc4F)c3cc2OC)CC1 (racemic)
IC50 [8]: 4200 nM | half-life at 1 µM [5]: 2.7 h | CLint scaled at 1 µM [6]: 10.7 mL/min/kg | remaining at 0.75 h, 1 µM [7]: 82% | Activity [9]: 0.25% | Activity [10]: 0.25% | Activity [11]: 0.1% | IC50 [12]: 145 nM | IC50 [13]: 27.9 nM | IC50 [1]: 57 nM | IC50 [3]: 530 nM | IC50 [4]: 98 nM | IC50 [14]: 150 nM | IC50 [15]: 1500 nM | IC50 [16]: 35 nM | IC50 [17]: 1600 nM | IC50 [18]: 780 nM | IC50 [19]: 170 nM | IC50 [20]: 380 nM

O=C(Nc1ccc(Oc2ccnc3c2CCN3)c(F)c1)c1c[nH]cc(-c2ccc(F)cc2)c1=O
IC50 [21]: 6 nM

CCN(CC)CCCOc1cc2nccc(Oc3c(F)cc(NC(=O)NN4C(=O)CSC4c4c(F)cccc4F)cc3F)c2cc1OC (stereo not drawn)
IC50 [8]: 3800 nM | IC50 [1]: 94 nM | IC50 [2]: 220 nM | IC50 [3]: 140 nM | IC50 [4]: 440 nM

CCN1CCN(CCCOc2cc3nccc(Oc4c(F)cc(NC(=O)NN5C(=O)CSC5c5ccccc5F)cc4F)c3cc2OC)CC1 (stereo not drawn)
IC50 [8]: > 10000 nM | half-life at 1 µM [5]: 2.17 h | CLint scaled at 1 µM [6]: 13.3 mL/min/kg | remaining at 0.75 h, 1 µM [7]: 78.2% | IC50 [1]: 53 nM | IC50 [2]: 88 nM | IC50 [3]: 110 nM | IC50 [4]: 140 nM | IC50 [14]: 230 nM | IC50 [15]: 2300 nM | IC50 [16]: 63 nM | IC50 [17]: 1300 nM | IC50 [19]: 880 nM | IC50 [20]: 2300 nM

CCN(CC)CCCOc1cc2nccc(Oc3ccc(NC(=O)NN4C(=O)CSC4c4c(F)cccc4F)cc3)c2cc1OC (stereo not drawn)
IC50 [1]: 58 nM | IC50 [2]: 120 nM | IC50 [3]: 530 nM | IC50 [4]: 150 nM

CCN(CC)CCCOc1cc2nccc(Nc3ccc(NC(=O)NN4C(=O)CSC4c4c(F)cccc4F)cc3)c2cc1OC (stereo not drawn)
IC50 [1]: 2100 nM | IC50 [2]: 4500 nM | IC50 [3]: 5500 nM | IC50 [4]: > 10000 nM

CCN1CCN(CCCOc2cc3nccc(Oc4c(F)cc(NC(=O)NN5C(=O)CSC5c5ccc(F)cc5)cc4F)c3cc2OC)CC1 (stereo not drawn)
IC50 [1]: 71 nM | IC50 [2]: 140 nM | IC50 [3]: 520 nM | IC50 [4]: 200 nM

CCN1CCN(CCCOc2cc3nccc(Oc4ccc(NC(=O)NN5C(=O)CSC5c5c(F)cccc5F)cc4)c3cc2OC)CC1 (stereo not drawn)
IC50 [1]: 59 nM | IC50 [2]: 130 nM | IC50 [3]: 220 nM | IC50 [4]: 110 nM

COc1cc2nccc(Oc3c(F)cc(NC(=O)NN4C(=O)CSC4c4c(F)cccc4F)cc3F)c2cc1OC (stereo not drawn)
IC50 [1]: 170 nM | IC50 [2]: 650 nM | IC50 [3]: 4100 nM | IC50 [4]: > 10000 nM

CNC(=O)c1cc(Oc2ccc(NC(=O)Nc3ccc(Cl)c(C(F)(F)F)c3)c(F)c2)ccn1 [REGORAFENIB]
IC50 [3]: 8600 nM | IC50 [4]: 3500 nM
